From patent publication US8729280B2, “Five crystal forms, methods of preparation, pharmaceutical compositions and applications of XLF-III-43” (Institute of Mataria Medica, Chinese Academy of Medical …, priority 2008, dated 2014)

Tests used:
[1] = Influences of different crystalline forms on blood drug levels in rats (pharmacokinetic study, HPLC of plasma); format: in vivo
Experimental: 1. Crystal Samples: crystalline form II and V of XLF-III-43, dispersant agent of crystalline form II (obtained by comminuting crystalline form II and V of XLF-III-43).
2. Methodology study of detecting blood drug level
(1) Experimental Conditions:
HPLC: waters 2690 chromatography system, 2487 UV detector, Milnicousamidem 32 chromatography management system. Column: 4.6×250 mm Spherisorb C18 5 μm; flow rate: 1.0 ml/min; column temperature: 25° C.; detection wavelength: 330 nm. After treated by solid phase extraction, plasma samples were directly injected and analyzed.
(4) Recovery experiment: extraction recoveries (greater than 75%) meet the requests that SFDA issued on methods of pharmacokinetic study.
(5) Sensitivity: minimum detectable amount was 2 ng/ml, the minimum limit of quantification was 5 ng/ml.

[2] = test system: acute renal function injury in mice induced by Cisplatin; assay: Effects of different crystalline forms of XLF-III-43 on acute renal function injury in mice induced by Cisplatin (serum BUN and Scr); format: in vivo, Male Kunming mice; settings: for BUN / BUN reduction (%) / Scr / Scr reduction (%): dose 25.0 × 3 mg/kg
Experimental: Objective: To observe the effects of different crystal forms of XLF-III-43 on acute renal function injury in mice induced by Cisplatin
Reagents: crystalline form I, II and V of XLF-III-43, all were prepared into suspensions with 0.5% sodium carboxymethylcellulose. Positive control: Losartan potassium, ATIRA Hangzhou Merck Sharp & Dohme Pharmaceutics Company, lot number: S1241. Crude drug of Cisplatin (DDP): Supplied by Shandong Qilu Pharmaceutics Company.
Animal: Male Kunming mice weighing 16 to 22 g were purchased from Institute of Laboratory Animal Sciences, Chinese Academy of Medical Sciences (Type II, Certificate No: SCXK-Jing 2000-0006). All the mice were feeded in standard breeding boxes, 5 per box, kept these boxes dry and clean, ventilate and sterilize animal room at fixed time, lightening time: 8:00-20:00, room temperature: 20-26° C., humidity: 40-70%, forage: clean breeding forage, bought from Animal Center of Academy of Military Medical Sciences, Certificate No: SCXX-(army) 2002-001.
Serum biochemistry kit: Beijing Beihua Refined Chemical Limited-liability Company
Apparatus: WELLSCAN MK3 Scanner, Germent SIGMA3K 15 Centrifuge, TGL-16G Freezing Centrifuge, Shanghai Anting Scientific Instrument Factory, Votex, American Bohemia N.Y Company.
Animal grouping: According to body weights, male Kunming mice weighing 18 to 22 grams were randomly divided into […] groups: control group, Cisplatin group (model group), Losartan potassium group, groups of three crystal forms of XLF-III-43, n=8 for each group.
Modeling and administrating: XLF-III-43 were dissolved in 0.5% sodium carboxymethylcellulose, Losartan potassium and Cisplatin were dissolved in physiological saline. Since two days before giving Cisplatin by peritoneal injection, Losartan potassium group and groups of three crystal forms of XLF-III-43 were intraperitoneally administered respectively. Control animals received an equal volume of physiological saline.
Serum parameters detecting: Blood samples were collected from the orbital venous plexus at day 3, 5, and 7 after injecting Cisplatin. Serum BUN and Scr were detected by serum biochemistry kit.

[3] = one-time orally administered at 30 mg/kg, preliminary pharmacokinetic
[4] = 3 days after injecting Cisplatin
[5] = 5 days after injecting Cisplatin
[6] = 7 days after injecting Cisplatin

For “3-(3′-carboxy-4′-hydroxy-anilino-carbo-)-6-nitro-7-hydroxy-8-methyl-coumarin [XLF-III-43]”, the “time within which it could be detected in plasma” value ([1]; one-time orally administered at 30 mg/kg) was no more than 36 h, the “detection in plasma at 48 h” value ([1]; one-time orally administered at 30 mg/kg, 48 h) was “could not be detected” and the “maximum plasma concentration Cmax” value [1, 3] was 2 µg/mL. For the same molecule, the “peak time (Tmax)” value [1, 3] was 30 min.
For “3-(3′-carboxy-4′-hydroxy-anilino-carbo-)-6-nitro-7-hydroxy-8-methyl-coumarin [crystalline form V of XLF-III-43]”, the “dose-effect relationship of renal function protective effect” value ([2]; Cisplatin model) was “good dose-effect relationship”, the “renal function protective effect (serum Scr and BUN)” value ([2]; Cisplatin model, compared among treated groups (crystalline form I, II, V, Losartan potassium)) was “best renal function protective effect” and the blood/plasma concentration ([1]; oral, FIG. 22, within a certain period of time) was “higher blood concentration than crystalline form II of XLF-III-43”.
In the case of CCCCc1nc(Cl)c(CO)n1Cc1ccc(-c2ccccc2-c2nn[nH]n2)cc1 [Losartan], the BUN [2, 4] is reported as 30.58 ± 4.19 mg/dL, the “BUN reduction (%)” value [2, 4] is reported as −1.9% and the Scr [2, 4] is reported as 1.41 ± 1.00 mg/dL. For the same molecule, the “Scr reduction (%)” value [2, 4] was 22.4%, the BUN [2, 5] was 31.75 ± 9.32 mg/dL and the “BUN reduction (%)” value [2, 5] was 24.6%. For the same molecule, the Scr [2, 5] was 1.16 ± 0.48 mg/dL, the “Scr reduction (%)” value [2, 5] was 39.3% and the BUN [2, 6] was 30.32 ± 2.89 mg/dL. For the same molecule, the “BUN reduction (%)” value [2, 6] was 23.8%, the Scr [2, 6] was 1.74 ± 0.31 mg/dL and the “Scr reduction (%)” value [2, 6] was 34.7%.
